# Data as given in patent US6908899B2, “Pro-inflammatory fibrinopeptide” (U.S. Dept. of Veterans Affairs, priority 2001, dated 2005).
# How the values were obtained:
# foreskin fibroblasts [1] = assay: IL-6 ELISA on cell supernatants; assay type: cell-based, human; settings: overnight with GPRP
# foreskin fibroblasts [2] = assay: ICAM-1 cell-ELISA (O.D. 492); assay type: cell-based, human
# RA synovial fibroblasts [3] = assay: IL-6 ELISA on cell supernatants; assay type: cell-based, human; settings: overnight with GPRP
# endothelial cells = assay: Fibrin co-culture with endothelial cells; assay type: cell-based
# From the text: (§1) Synthetic peptides modeled after these “knobs” are able to inhibit fibrin polymerization by covering up the “holes” on the gamma chains and are commercially available.
# RA synovial cell lines = assay: Flow cytometry analysis of ICAM-1 expression; assay type: cell-based, human
# RA synovial fibroblasts [4] = assay: GRO-alpha ELISA on cell culture supernatants; assay type: cell-based, human
# Protocol: (§2) I used commercial ELISA kits to assay cell culture supernatants of RA fibroblasts that were cultured for both 24 and 48 hours with or without peptide.
# OA synovial cells = assay: PDTC inhibition of IL-1 and GPRP induction of ICAM-1 (ELISA); assay type: cell-based, human; settings: PDTC pre-incubation 1.5 hours, IL-1 or GPRP overnight, ± SD, triplicate
# From the text: (§3) NF-kappaB activation is already well known to affect a broad array of immediate-early gene products, such as TNF, interleukins, chemokines and colony stimulating factors; genes that are tightly regulated during inflammation and wound healing. […] PDTC is an anti-oxidant that prevents NF-kappaB activation and its translocation to the nucleus (Reference 26). […] [table]
# RA synovial cells = assay: as above; assay type: cell-based, human; settings: PDTC pre-incubation 1.5 hours, IL-1 or GPRP overnight, ± SD, triplicate
# From the text: as §3
# [5] = tested on: OA derived synovial cells; assay: In vitro T cell adhesion assay; assay type: cell-based, human; settings: OA line 15, ± SD, triplicate wells
# [6] = tested on: human lung fibroblastic cells; assay: Response of lung fibroblastic cells to the fibrinopeptide; assay type: cell-based
# From the text: The peptide of the invention is believed to play a role in inflammatory lung diseases in which fibrin deposition is also known to occur. My research has proven that human lung fibroblastic cells are also responsive to the fibrinopeptide, and under its influence, will express selective pro-inflammatory molecules on the cell surface and will secrete pro-inflammatory mediators, such as cytokines and chemical attractants for immune cells.
# RA synovial fibroblasts [7] = assay: IL-8 ELISA on cell culture supernatants; assay type: cell-based, human; settings: for IL-8: 1 mg/ml GPRP
# Protocol: as §2
# [8] = tested on: RA derived synovial cells; assay: In vitro T cell adhesion assay; assay type: cell-based, human; settings: ± SD, triplicate wells
# foreskin fibroblasts [9] = assay: IL-8 ELISA on cell culture supernatants; assay type: cell-based, human; settings: 1 mg/ml GPRP
# Synovial cells = assay: SAC competition assay by flow cytometry; assay type: binding, human
# From the text: Thus, labeled peptide could facilitate the isolation, identification and characterization of its receptor, through standard immunological techniques such as immunohistochemistry, flow cytometry and immunoprecipitation.
# fibrin polymerization = assay: Inhibition of fibrin polymerization; assay type: biochemical; settings: applicant's studies of fibrin co-culture (Reference 19)
# From the text: as §1
# For example, changing Gly1 to anything else destroys its inhibitory action as there appears to be no extra “room” for a side chain in the gamma chain “hole” into which it must fit. However, as noted below, amino acid Pro4 functions differently.
# RA synovial fibroblasts [10] = assay: ICAM-1 cell-ELISA (O.D. 492); assay type: cell-based, human; settings: for ICAM-1 O.D. 492 / ICAM-1 expression O.D. 492: overnight; for ICAM-1 O.D. 492: IL-1 0.5 ng/ml, GPRP or GPRP-amide 1 mg/ml, fibrinogen receptor peptide 0.1 mg/ml, FPA, FPB 10^−4 M; for ICAM-1 expression O.D. 492: fibrin clots 0.6 mg/ml or GPRP 1 mg/ml, mean ± SD, triplicate
# foreskin fibroblasts [11] = assay: GRO-alpha ELISA on cell culture supernatants; assay type: cell-based, human; settings: for Increase in GRO-alpha secretion: foreskin FB
# [12] = tested on: human foreskin fibroblasts; assay: Flow cytometry analysis of ICAM-1 expression; assay type: cell-based; settings: GPRP 1 mg/ml
# [13] = tested on: synovial fibroblast lines; assay: V-CAM-1 expression on synovial lines; assay type: cell-based, human; settings: in response to the peptide
# [14] = RA line 4, fibrin clot 0.6 mg/ml or GPRP 1 mg/ml
# [15] = RA line 9, fibrin clot 0.6 mg/ml or GPRP 1 mg/ml
# Sequence of fibrin polymerization (P02679 27-453): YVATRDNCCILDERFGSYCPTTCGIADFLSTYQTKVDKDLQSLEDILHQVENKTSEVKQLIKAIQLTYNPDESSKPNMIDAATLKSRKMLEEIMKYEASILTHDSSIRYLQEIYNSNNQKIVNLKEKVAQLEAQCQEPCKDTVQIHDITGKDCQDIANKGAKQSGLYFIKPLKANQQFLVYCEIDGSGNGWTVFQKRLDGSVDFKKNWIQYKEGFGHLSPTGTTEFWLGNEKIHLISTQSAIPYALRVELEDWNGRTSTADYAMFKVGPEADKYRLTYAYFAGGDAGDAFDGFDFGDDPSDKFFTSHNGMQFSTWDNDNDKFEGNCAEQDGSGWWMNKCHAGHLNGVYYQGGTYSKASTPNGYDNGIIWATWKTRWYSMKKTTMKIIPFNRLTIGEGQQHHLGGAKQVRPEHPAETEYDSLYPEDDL
# Sequence of fibrin polymerization (P02671 20-639 isoform P02671-2 partner limits assumed): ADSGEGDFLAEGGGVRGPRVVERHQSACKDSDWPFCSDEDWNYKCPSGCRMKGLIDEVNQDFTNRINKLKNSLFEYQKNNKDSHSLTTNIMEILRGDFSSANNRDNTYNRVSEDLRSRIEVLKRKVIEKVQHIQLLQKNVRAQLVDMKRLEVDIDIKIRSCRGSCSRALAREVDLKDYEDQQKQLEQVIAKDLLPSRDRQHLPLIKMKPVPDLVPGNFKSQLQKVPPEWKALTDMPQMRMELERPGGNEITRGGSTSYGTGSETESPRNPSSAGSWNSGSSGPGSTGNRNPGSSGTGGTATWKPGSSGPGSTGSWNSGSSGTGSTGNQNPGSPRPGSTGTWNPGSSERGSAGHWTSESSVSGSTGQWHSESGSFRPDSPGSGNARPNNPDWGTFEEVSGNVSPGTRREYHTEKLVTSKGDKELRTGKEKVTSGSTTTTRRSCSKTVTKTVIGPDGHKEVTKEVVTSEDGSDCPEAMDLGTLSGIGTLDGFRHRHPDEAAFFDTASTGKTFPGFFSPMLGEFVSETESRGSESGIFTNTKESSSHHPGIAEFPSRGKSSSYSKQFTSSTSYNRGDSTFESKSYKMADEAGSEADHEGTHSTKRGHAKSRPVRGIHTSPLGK
# Sequence of fibrin polymerization (P02675 45-491 partner limits assumed): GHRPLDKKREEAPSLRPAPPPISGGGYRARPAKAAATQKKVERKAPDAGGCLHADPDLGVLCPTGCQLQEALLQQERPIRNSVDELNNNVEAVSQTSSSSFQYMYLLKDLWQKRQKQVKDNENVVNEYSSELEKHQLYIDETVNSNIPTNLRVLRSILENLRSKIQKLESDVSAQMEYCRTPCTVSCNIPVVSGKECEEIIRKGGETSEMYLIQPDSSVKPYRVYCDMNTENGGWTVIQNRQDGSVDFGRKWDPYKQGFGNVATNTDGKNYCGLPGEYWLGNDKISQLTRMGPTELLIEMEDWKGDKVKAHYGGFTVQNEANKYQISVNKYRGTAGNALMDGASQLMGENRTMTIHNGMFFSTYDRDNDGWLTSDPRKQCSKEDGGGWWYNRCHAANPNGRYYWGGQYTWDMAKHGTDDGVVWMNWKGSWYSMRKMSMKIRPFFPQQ
substance,measurement,setting,value
Gly-Pro-Arg-Pro [GPRP],IL-6,foreskin fibroblasts [1],215 pg/mL
same,ICAM-1 OD 492,"foreskin fibroblasts [2]; FF-#1, GPRP 0.10 mg/ml overnight",0.92 ± .02
same,ICAM-1 OD 492,"foreskin fibroblasts [2]; FF-#1, GPRP 0.30 mg/ml overnight",0.99 ± .01
same,ICAM-1 OD 492,"foreskin fibroblasts [2]; FF-#1, GPRP 1.00 mg/ml overnight",1.02 ± .01
same,ICAM-1 OD 492,"foreskin fibroblasts [2]; FF-#1, GPRP .001 mg/ml overnight",0.92 ± .01
same,ICAM-1 OD 492,"foreskin fibroblasts [2]; FF-#1, GPRP .003 mg/ml overnight",0.95 ± .06
same,ICAM-1 OD 492,"foreskin fibroblasts [2]; FF-#1, GPRP .010 mg/ml overnight",0.93 ± .03
same,ICAM-1 OD 492,"foreskin fibroblasts [2]; FF-#1, GPRP .030 mg/ml overnight",0.94 ± .05
same,ICAM-1 OD 492,"foreskin fibroblasts [2]; FF-#2, GPRP 0.10 mg/ml overnight",.72 ± .02
same,ICAM-1 OD 492,"foreskin fibroblasts [2]; FF-#2, GPRP 0.30 mg/ml overnight",.72 ± .03
same,ICAM-1 OD 492,"foreskin fibroblasts [2]; FF-#2, GPRP 1.00 mg/ml overnight",.78 ± .04
same,ICAM-1 OD 492,"foreskin fibroblasts [2]; FF-#2, GPRP .001 mg/ml overnight",.69 ± .02
same,ICAM-1 OD 492,"foreskin fibroblasts [2]; FF-#2, GPRP .003 mg/ml overnight",.71 ± .04
same,ICAM-1 OD 492,"foreskin fibroblasts [2]; FF-#2, GPRP .010 mg/ml overnight",.71 ± .02
same,ICAM-1 OD 492,"foreskin fibroblasts [2]; FF-#2, GPRP .030 mg/ml overnight",.70 ± .02
same,ICAM-1 expression O.D. 492,"foreskin fibroblasts [2]; Foreskin fibroblasts, overnight, fibrin clots 0.6 mg/ml, GPRP 1 mg/ml or interferon γ 200 U/ml, mean ± SD",0.55 ± .05
same,ICAM-1 O.D. 492,"foreskin fibroblasts [2]; Foreskin line, overnight, IL-1 0.5 ng/ml, GPRP or GPRP-amide 1 mg/ml, fibrinogen receptor peptide 0.1 mg/ml, FPA, FPB 10^−4 M",0.79 ± .02
same,IL-6,RA synovial fibroblasts [3]; RA #1,2400 pg/mL
same,IL-6 INCREASE over control,RA synovial fibroblasts [3]; RA #1,1.50X
same,IL-6,RA synovial fibroblasts [3]; RA #11,1700 pg/mL
same,IL-6 INCREASE over control,RA synovial fibroblasts [3]; RA #11,6.18X
same,IL-6,RA synovial fibroblasts [3]; RA #16,11100 pg/mL
same,IL-6 INCREASE over control,RA synovial fibroblasts [3]; RA #16,3.70X
same,IL-6,RA synovial fibroblasts [3]; RA #18,940 pg/mL
same,IL-6 INCREASE over control,RA synovial fibroblasts [3]; RA #18,1.90X
same,Direct effects on endothelial cells,endothelial cells,no direct effects
same,ICAM-1 % positive,RA synovial cell lines; [14],87.0%
same,ICAM-1 MFC,RA synovial cell lines; [14],2.73
same,ICAM-1 % positive,"RA synovial cell lines; RA line 5, GPRP 1 mg/ml",74.5%
same,ICAM-1 MFC,"RA synovial cell lines; RA line 5, GPRP 1 mg/ml",2.00
same,ICAM-1 % positive,"RA synovial cell lines; RA line 6, GPRP 1 mg/ml",95.0%
same,ICAM-1 MFC,"RA synovial cell lines; RA line 6, GPRP 1 mg/ml",9.19
same,ICAM-1 % positive,RA synovial cell lines; [15],80.1%
same,ICAM-1 MFC,RA synovial cell lines; [15],3.62
same,GRO-alpha Fold Increase,"RA synovial fibroblasts [4]; RA fibroblasts, visual observation of developed ELISA plates",at least as much as was seen for IL-8
same,GRO-alpha,"RA synovial fibroblasts [4]; RA line 8, 1 mg/ml GPRP",8500 pg/mL
same,GRO-alpha Fold Increase,"RA synovial fibroblasts [4]; RA line 8, 1 mg/ml GPRP, versus control",21X
same,ICAM-1 O.D. 492,OA synovial cells; OA line 2,1.66 ± .05
same,ICAM-1 O.D. 492,OA synovial cells; OA line 8,1.30 ± .09
same,ICAM-1 O.D. 492,RA synovial cells; RA line 5,1.83 ± .08
same,ICAM-1 O.D. 492,RA synovial cells; RA line 6,1.67 ± .06
same,Adherent T cell numbers,[5]; GPRP 0.1 mg/ml overnight,92 ± 27
same,Adherent T cell numbers,[5]; GPRP 1 mg/ml overnight,113 ± 44
same,"Responsiveness of lung fibroblastic cells (surface pro-inflammatory molecules, secreted mediators)",[6],responsive
same,Increase of IL-8 production,"RA synovial fibroblasts [7]; RA Line 1, forty-eight hours",fifteen
same,Increase of IL-8 production,"RA synovial fibroblasts [7]; RA Line 1, twenty-four hours",12.6 fold
same,Increase of IL-8 production,"RA synovial fibroblasts [7]; RA Line 2, forty-eight hours",ten
same,Increase of IL-8 production,"RA synovial fibroblasts [7]; RA Line 2, twenty-four hours",ten
same,IL-8,"RA synovial fibroblasts [7]; RA line 1, 24 hr","16,000 pg/ml"
same,IL-8,"RA synovial fibroblasts [7]; RA line 1, 48 hr","17,500 pg/ml"
same,IL-8,"RA synovial fibroblasts [7]; RA line 4, 24 hr","9,000 pg/ml"
same,IL-8,"RA synovial fibroblasts [7]; RA line 4, 48 hr","6,800 pg/ml"
same,Adherent T cell numbers,"[8]; RA line 7, GPRP 0.1 mg/ml overnight",184 ± 58
same,Adherent T cell numbers,"[8]; RA line 7, GPRP 1 mg/ml overnight",153 ± 54
same,Adherent T cell numbers,"[8]; RA line 8, GPRP 0.1 mg/ml overnight",99 ± 18
same,Adherent T cell numbers,"[8]; RA line 8, GPRP 1 mg/ml overnight",97 ± 10
same,IL-8,foreskin fibroblasts [9]; 24 hr,"1,840 pg/ml"
same,IL-8,foreskin fibroblasts [9]; 48 hr,"1,200 pg/ml"
same,Competition with biotin-labeled SAC for binding to human synovial fibroblasts,Synovial cells; unlabeled competitor,can compete
same,Mean (fluorescence of bound SAC[KBtn]),"Synovial cells; unlabeled competitor 2.5 mg for 3 hours, then labeled SAC[KBtn] for 1 hour, Avidin-FITC",33.58
same,Inhibition of fibrin polymerization,fibrin polymerization,good inhibitor of fibrin polymerization
same,ICAM-1 induction,RA synovial fibroblasts [10]; GPRP at 0.01 mg/ml,not to be significant
same,ICAM-1 induction,"RA synovial fibroblasts [10]; GPRP at 1.0, 0.5, and 0.1 mg/ml",significant induction
same,ICAM-1 O.D. 492,RA synovial fibroblasts [10]; RA line 1,1.38 ± .16
same,ICAM-1 O.D. 492,RA synovial fibroblasts [10]; RA line 2,0.98 ± .03
same,ICAM-1 expression O.D. 492,RA synovial fibroblasts [10]; RA line 4,1.04 ± .02
same,ICAM-1 expression O.D. 492,RA synovial fibroblasts [10]; RA line 5,1.10 ± .03
same,ICAM-1 expression O.D. 492,RA synovial fibroblasts [10]; RA line 9,0.98 ± .15
same,ICAM-1 OD 492,"RA synovial fibroblasts [10]; RA#11, GPRP 0.10 mg/ml overnight",.37 ± 0
same,ICAM-1 OD 492,"RA synovial fibroblasts [10]; RA#11, GPRP 0.30 mg/ml overnight",.46 ± .05
same,ICAM-1 OD 492,"RA synovial fibroblasts [10]; RA#11, GPRP 1.00 mg/ml overnight",.59 ± .05
same,ICAM-1 OD 492,"RA synovial fibroblasts [10]; RA#11, GPRP .001 mg/ml overnight",.24 ± .05
same,ICAM-1 OD 492,"RA synovial fibroblasts [10]; RA#11, GPRP .003 mg/ml overnight",.25 ± .03
same,ICAM-1 OD 492,"RA synovial fibroblasts [10]; RA#11, GPRP .010 mg/ml overnight",.24 ± .05
same,ICAM-1 OD 492,"RA synovial fibroblasts [10]; RA#11, GPRP .030 mg/ml overnight",.31 ± .02
same,ICAM-1 OD 492,"RA synovial fibroblasts [10]; RA#12, GPRP 0.10 mg/ml overnight",0.76 ± .03
same,ICAM-1 OD 492,"RA synovial fibroblasts [10]; RA#12, GPRP 0.30 mg/ml overnight",1.09 ± .06
same,ICAM-1 OD 492,"RA synovial fibroblasts [10]; RA#12, GPRP 1.00 mg/ml overnight",1.42 ± .08
same,ICAM-1 OD 492,"RA synovial fibroblasts [10]; RA#12, GPRP .001 mg/ml overnight",0.51 ± .01
same,ICAM-1 OD 492,"RA synovial fibroblasts [10]; RA#12, GPRP .003 mg/ml overnight",0.53 ± .01
same,ICAM-1 OD 492,"RA synovial fibroblasts [10]; RA#12, GPRP .010 mg/ml overnight",0.57 ± .02
same,ICAM-1 OD 492,"RA synovial fibroblasts [10]; RA#12, GPRP .030 mg/ml overnight",0.62 ± .03
same,ICAM-1 expression,RA synovial fibroblasts [10]; more than seven different RA fibroblast lines,consistently increased expression of ICAM-1
same,GRO-alpha,"foreskin fibroblasts [11]; Foreskin fibroblasts, 1 mg/ml GPRP",470 pg/mL
same,GRO-alpha Fold Increase,"foreskin fibroblasts [11]; Foreskin fibroblasts, 1 mg/ml GPRP, versus control",1.2X
same,Increase in GRO-alpha secretion,foreskin fibroblasts [11]; forty-eight hours,1.2 fold
same,Increase in GRO-alpha secretion,foreskin fibroblasts [11]; twenty-four hours,1.2 fold
same,ICAM-1 % positive,[12],86.7%
same,ICAM-1 MFC,[12],2.26
same,Lines tested that upregulated V-CAM-1 expression,[13],about 50 % of the lines tested
